In patent publication US11530132B2, “Composition comprising porous silica particles carrying a cell fate modulating factor” (LEMONEX INC., priority 2017, dated 2022):

Assays:
[1] = system: nerve cells or fibroblasts; assay: Transfection rate of factors carried in DDV; format: cell-based; conditions: factor carried in DDV
[2] = system: nerve cells or fibroblasts; assay: Forward differentiation rate with factors carried in DDV; format: cell-based; conditions: factor carried in DDV
Text: (§1) This process was repeated 3 times.
as §1

mES cells = assay: Neural induction of mES cells, quantitative image analysis (Tuj1-positive cells, axon length); format: cell-based, mouse; conditions: after neural induction; FIG. 32
Description: Neural induction of mES cells was conducted by adding RA or RA/AMSN19 complex. In particular, 10^−6M RA or 25 μg of RA/AMSN19 (corresponding to 3×10^−6M including RA) was used for treatment of mES cells in a complete mES medium for 2 days. A non-induction group was cultured as a negative control group. After 2 days, the medium was replaced with a new nerve cell culture medium, N2B27. The medium was replaced on alternate days.
For quantitative analysis, 5 representative fluorescent images were obtained from different immunostain samples, respectively. The images were analyzed by an ImageJ program. For Tuj1-positive cell analysis, the number of florescent cells expressing Tuj1 more than a critical value was measured from each image, followed by calculating a ratio of the measured number to a total number of nuclei. For measurement of a length of axon, axons contained in 50 cells in each sample were analyzed by a line measurement device. In consideration of 100 representative axons, an average value was calculated.

SMILES	Transfection rate [1]	Forward differentiation rate [2]	Cell conversion efficiency (rate of Tuj1 positive cells among entire cells survived) (mES cells)
Nc1ncn([C@@H]2O[C@H](CO)[C@@H](O)[C@H]2O)c(=O)n1 [5-azacytidine]	50-95%	5-30%	
CC1=C(/C=C/C(C)=C/C=C/C(C)=C/C(=O)O)C(C)(C)CCC1 [RA, retinoic acid]			about 30%
